Series [1] is described as follows: Addiction effects: naloxone-precipitated abstinence syndrome after long-term treatment. The format is in vivo. To be noted: rats, 6 days long-term treatment, naloxone 2 mg/kg s.c.; compared to morphine. On the procedure:
(§1) 1) The compound 8 is administered s.c. four times per 24 hours at a dose of 5 mg/kg for 6 days to mice and at 10 mg/kg to rats.
2) After long-term treatment for 6 days under the conditions described above, the rats undergo an injection of 2 mg/kg of naloxane s.c. The signs of abstinence syndrome are measured according to Cowan et al. (J. Pharmacol. Exp. Ther. (1988) 246, 950).

Series [2] is described as follows: Tolerance after long-term administration, mice (% analgesia). Format: in vivo. To be noted: mouse, in vivo. On the procedure: (§2) e) Study of the tolerance and addiction effects induced by long-term administration of the compound of Example 8:
as §1
(§3) Morphine (hydrochloride) is administered under the same conditions (0.5 mg/kg in mice, 2 mg/kg in rats). The control animals receive only the vehicle.

A further series in a line: Hot plate test, i.v. Format: in vivo. To be noted: Mus musculus, iv, mice, hot plate 55° C., Table III 50% analgesia. The method, then: (§4) 1) Hot .plate test: This involves the licking and jumping reflex of the mouse on a plate heated to 55° C., according to the method of Jacob et al (Arch Int. Pharmacodyn. 122 287, 1959; 1961).
1.1. Administered i.v. (100 μl in tail vein) in mice, the compounds tested display a characteristic effect both on the latency time of jumping and on latency time of licking. These effects are antagonized by naloxone (0.5 mg/kg s.c.).
The results are expressed in Table III as a % analgesia. The percentage analgesia is expressed for each dose of compound tested by the following formula: [formula]

For series [3], the target named is T1, purified rabbit kidney neutral endopeptidase (Oryctolagus cuniculus, UniProt P08049).
T1 construct: from tissue; host or cells: rabbit kidney (purified enzyme)
T1 sequence (P08049 1-750): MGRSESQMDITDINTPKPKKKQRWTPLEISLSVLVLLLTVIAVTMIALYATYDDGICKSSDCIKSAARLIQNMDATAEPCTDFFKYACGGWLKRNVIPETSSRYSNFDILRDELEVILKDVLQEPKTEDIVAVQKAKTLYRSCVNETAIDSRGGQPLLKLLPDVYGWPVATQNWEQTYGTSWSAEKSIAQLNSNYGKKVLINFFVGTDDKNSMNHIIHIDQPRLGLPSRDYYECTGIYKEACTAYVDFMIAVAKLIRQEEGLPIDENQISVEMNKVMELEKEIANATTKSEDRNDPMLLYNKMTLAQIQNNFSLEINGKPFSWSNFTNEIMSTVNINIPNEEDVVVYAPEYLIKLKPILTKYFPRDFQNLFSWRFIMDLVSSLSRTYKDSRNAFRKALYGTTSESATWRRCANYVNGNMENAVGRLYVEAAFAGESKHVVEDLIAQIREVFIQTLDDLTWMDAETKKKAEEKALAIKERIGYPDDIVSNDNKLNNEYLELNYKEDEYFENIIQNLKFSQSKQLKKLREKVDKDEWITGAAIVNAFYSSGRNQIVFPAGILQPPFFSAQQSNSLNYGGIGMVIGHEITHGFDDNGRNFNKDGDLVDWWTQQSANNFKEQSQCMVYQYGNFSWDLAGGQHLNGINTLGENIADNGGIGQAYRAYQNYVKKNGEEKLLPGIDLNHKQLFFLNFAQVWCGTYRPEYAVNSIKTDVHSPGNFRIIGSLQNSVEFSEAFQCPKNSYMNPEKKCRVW
As to the kind of experiment: In vitro inhibitory potency against neutral endopeptidase. Format: biochemical. Conditions: purified rabbit kidney enzyme, (3H)-D-Ala2-Leu5-enkephalin, 25° C., pH 7.4, DTT 100 equivalents. On the procedure:
(§5) The biological activity relates to the inhibition of purified aminopeptidase N and of purified neutral endopeptidase.
(§6) 1) In vitro inhibition of enkephalinase activities.
a) Inhibitory potency against neutral endopeptidase
The inhibitory power is determined on purified rabbit kidney neutral endopeptidase following the protocol described in the literature (Blumberg et al. Life Sci. (1981) 28, 301). After a preincubation for 15 minutes at 25° C., an aliquot of proteins is incubated for 20 minutes at 25° C. in the presence of 20 nmol of (^3 H)-D-Ala^2 -Leu^5 -enkephalin and the test compound in solution in Tris-HCl buffer (pH 7.4) in the presence of dithiothreitol DTT (100 equivalents relative to the inhibitor). The reaction is stopped by adding 0.2 N HCl. The tritiated metabolite (^3 H)-Tyr-D-Ala-Gly is separated from the D-Ala^2 -Leu^5 -enkephalin by chromatography on a Porapak column, and the quantity formed measured using a liquid scintillation counter.
The activity of the different compounds is expressed as 50% inhibitory concentrations (IC50), and the results are summarized in Table II.

The nature of series [4]: Tolerance after long-term administration, rats (% analgesia). The format is in vivo. Conditions: rat, in vivo. The method, then:
as §2, §1, §3

Series [5] has as its target T2, purified porcine kidney aminopeptidase N (Sus scrofa, UniProt P15145).
T2 construct: purchased Boehringer, France; host or cells: porcine kidney
T2 sequence (P15145 1-963): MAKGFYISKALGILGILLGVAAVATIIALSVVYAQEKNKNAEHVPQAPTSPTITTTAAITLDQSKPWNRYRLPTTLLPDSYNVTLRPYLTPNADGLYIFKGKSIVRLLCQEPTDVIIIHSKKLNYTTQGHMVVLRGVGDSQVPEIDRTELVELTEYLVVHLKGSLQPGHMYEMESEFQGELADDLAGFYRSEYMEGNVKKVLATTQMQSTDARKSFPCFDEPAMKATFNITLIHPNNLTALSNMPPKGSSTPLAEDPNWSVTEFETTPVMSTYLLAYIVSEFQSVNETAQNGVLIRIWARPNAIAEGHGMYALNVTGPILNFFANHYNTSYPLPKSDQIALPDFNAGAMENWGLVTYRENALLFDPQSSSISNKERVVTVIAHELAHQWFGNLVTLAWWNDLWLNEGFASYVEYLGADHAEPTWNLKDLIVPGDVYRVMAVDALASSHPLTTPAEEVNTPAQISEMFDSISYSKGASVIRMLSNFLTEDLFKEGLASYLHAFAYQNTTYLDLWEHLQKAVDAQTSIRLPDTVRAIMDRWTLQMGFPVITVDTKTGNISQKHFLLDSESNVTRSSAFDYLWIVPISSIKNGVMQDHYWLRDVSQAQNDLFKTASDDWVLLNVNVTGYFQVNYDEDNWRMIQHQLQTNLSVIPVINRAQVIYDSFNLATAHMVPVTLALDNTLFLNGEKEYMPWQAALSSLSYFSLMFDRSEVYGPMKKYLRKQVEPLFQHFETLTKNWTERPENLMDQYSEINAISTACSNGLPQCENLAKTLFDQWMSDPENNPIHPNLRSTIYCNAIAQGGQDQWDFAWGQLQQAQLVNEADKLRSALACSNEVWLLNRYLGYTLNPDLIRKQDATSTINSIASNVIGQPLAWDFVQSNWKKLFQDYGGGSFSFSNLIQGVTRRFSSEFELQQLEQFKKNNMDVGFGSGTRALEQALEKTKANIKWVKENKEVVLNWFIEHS
As to the kind of experiment: In vitro inhibitory potency against aminopeptidase N. Format: biochemical. Conditions: purified porcine kidney enzyme, (3H)-Leu5-enkephalin, DTT. On the procedure:
as §5, §6
b) Inhibitory potency against aminopeptidase N
The inhibitory power is measured on purified porcine kidney aminopeptidase (Boehringer, France). The assay is performed in a manner identical to the above, using (^3 H)-Leu^5 -enkephalin as a substrate. The metabolite formed, (^3 H)-Tyr, is separated by chromatography on a Porapak column, and the quantity formed measured using a liquid scintillation counter.

Another series is described as follows: Hot plate test, i.p. Conditions: mice. The format is in vivo. On the procedure:
as §4
1.2 Administered i.p. in mice, the test compounds display a characteristic effect on the times of restraint of jumping and of licking. These effects are antagonized by naloxone (0.5 mg/kg).

Series [6] is described as follows: Cross-tolerance with morphine, i.v. injection into morphine-tolerant animal. Conditions: mouse or rat.
Series [7] can be described thus: Locomotor activity (righting movements) after long-term sulpiride. The format is in vivo, rats. To be noted: rat, after three weeks of sulpiride, control rat 100%. On the procedure: c) Potentiation of the behavioral effects (locomotor hyperactivity) induced by the compounds according to the invention after long-term treatment with […]: 1 h after i.v. or p.o. administration in rats, the compounds according to the invention induce an increase in locomotor activity. […] This potentiation is not apparent until three weeks after the beginning of the treatment with neuroleptics.

A further series deals with cerebral NEP. Put plainly: In vivo inhibition of cerebral NEP. To be noted: mice, i.v., 2.7 μmol/kg (Example 7: same conditions). On the procedure: 2) "In vivo" inhibition of cerebral NEP
The enzymatic activity of cerebral NEP is compared in mice untreated or treated with a given dose of compound (approximately 2.5 mg/kg injected intravenously. The animals are sacrificed at variable times after injection of the inhibitor, and the NEP activity is determined in the brain by measuring the degradation of (^3 H)-D-Ala^2 -Leu^5 -enkephalin.
For the final compound of Example 1, injected at a dose of 2.7 μmol/kg (47.6 μg in 100 μl), the following results are obtained: […]

Series [8] can be described thus: Test on abdominal cramps induced by phenylbenzoquinone, i.v. The format is in vivo. On the procedure:
2) Test on abdominal cramps
(Hendershot and Forsaith. J. Pharmacol. (1975), 125, 237): This test measures the number of cramps induced by i.p. injection of 100 μl of a 0.02% solution of phenylbenzoquinone. The number of cramps is counted during 10 minutes, 10 minutes after the injection. Administered i.v., the compounds decrease the number of cramps.

The nature of series [9]: Tail flick test (withdrawal of the tail), i.v. The format is in vivo. Conditions: rats, 10 mg/kg. The method, then: 3) Test of withdrawal of the tail in rats: (tail flick test): administered i.v. in rats, the compounds according to the invention produce a significant extension of the time of withdrawal of the tail. These effects are antagonized by naloxone (0.5 mg/kg s.c.).
The results are expressed as a % analgesia for the same dose (10 mg/kg) of all the compounds tested.

The next series is described as follows: Mice despair test. Format: in vivo. Conditions: mouse, controls 165 ± 15, p < 0.01. On the procedure:
This test, described by Porsolt et al. (Arch. Int. Pharmacodyn. Ther, 299, 327 (1977), enables the antidepressant properties of the claimed compounds to be evaluated.
Mice are treated with increasing doses of the compounds thirty minutes before the test, and the immobility of the animals is measured relative to controls which receive only the vehicle. The immobility time is decreased by the compounds according to the invention, and this effect is antagonized by naloxame (0.5 mg/kg s.c.).

Several values for one entry are separate records, joined by “and”; a condition that tells them apart may be missing. Equal values may be shown once.

`C[S+]([O-])CCC(N)CSSCC(Cc1ccccc1)C(=O)NCC(=O)OCc1ccccc1` (stereo not drawn) [Example 8]: the addiction effects entry in [1] was “very weak addiction effects”. The “% analgesia relative to the controls” value in series [2] is 100 ± 10% and 100 ± 8% and 70 ± 15%; in series [4], 40 ± 5% and 30 ± 7%. Further, the ED50 in the series “Hot plate test, i.v.” turned out to be 2.5 mg/kg. Besides, the IC50 in series [3] and in [5] was 2 nM in each case.
For the compound `CSCCC(N)CSSCC(Cc1ccccc1)C(=O)NC(Cc1ccccc1)C(=O)OCc1ccccc1` (stereo not drawn) [Example 7], in “Hot plate test, i.p.”, the “dose in i.p. hot plate table” value is 8 mg/kg. Moreover, the “analgesic response in morphine-tolerant animal” value in series [6] was “analgesic response identical to that obtained in a control animal”. For the same compound, in series [6], the cross-tolerance with morphine result was “absence of cross-tolerance”. Further, the ED50 in the series “Hot plate test, i.v.” amounted to 5 mg/kg. The Locomotor activity in series [7] (i.v., 3 mg/kg) was 400%. Moreover, the entries for the “% inhibition cerebral NEP” value in the series on cerebral NEP (60'), in the series on cerebral NEP (120') and with cerebral NEP (180') were 96 ± 5%, 96 ± 4% and 92 ± 4%, respectively. Besides, the entries for the “% analgesia (abdominal cramps)” value in [8] (2.5 mg/kg), in series [8] (5 mg/kg) and in series [8] (10 mg/kg) were 32% ± 4, 68% ± 9 and 95% ± 4, respectively. Also, in [3], the IC50 was 2.5 nM. The “% analgesia (tail flick)” value in series [9] was determined as 42%.
On to `C[S+]([O-])CCC(N)CSSCC(CC[S+](C)[O-])C(=O)NC(CC(=O)OCc1ccccc1)Cc1ccccc1` (stereo not drawn) [Example 30], for which, in “Hot plate test, i.v.”, the ED50 was found to be 3 mg/kg. In addition, the Locomotor activity is given as 370% in [7] (i.v. (so in the source), 20 mg/kg) and 350% in series [7] (i.v., 2 mg/kg). In addition, the values for the IC50 in series [3] and in series [5] were 3 nM and 2 nM, respectively. In addition, the Immobility time stood at 96 ± 8 s in the series “Mice despair test” (2 mg/kg i.p.) and 101 ± 10 s in “Mice despair test” (20 mg/kg p.o.).
In the case of `CSCCC(N)CSSCC(Cc1ccccc1)C(=O)NCC(=O)OCc1ccccc1` (stereo not drawn) [Example 5], the “dose in i.p. hot plate table” value in the series “Hot plate test, i.p.” was 7 mg/kg. The ED50 in the series “Hot plate test, i.v.” worked out at 2.5 mg/kg. Also, the Locomotor activity in [7] (i.v., 5 mg/kg) came out at 400%. The IC50 in series [3] and in series [5] was 2 nM throughout. Moreover, the “% analgesia (tail flick)” value in series [9] is listed as 25%. The same compound came in with an Immobility time in the series “Mice despair test” (5 mg/kg i.p.) of 108 ± 12 s.
